From US20090305955A1, “Cyclopeptide with Anti-Cancer Activity Derived from Collagen Type IV” (priority 2006, published 2009) come the findings set out here.

In this assay the test system is PAI-1. As to the kind of experiment: Western blot of PAI-1 secretion, UACC-903 cells. The settings on record: cyclopeptide 5 to 20 μM. Format: cell-based, human. The method, then: FIG. 15: Effect of YSNSG (SEQ ID NO: 3) cyclopeptide on secretion of PAI-1 (plasminogen activator inhibitor-1). The secretion of PAI-1 was analyzed by Western Blot (A) in a medium conditioned by UACC-903 cells control in the absence of peptide (negative control, white bar), in cells treated with linear heptapeptide CNYYSNS (SEQ ID NO: 5) (20 μM) (positive control, black bar) or treated with YSNSG (SEQ ID NO: 3) cyclopeptide at a concentration from 5 μM to 20 μM (grey bars). The conditioned medium was recovered, concentrated and analyzed as described in the methods.
The samples underwent 10% polyacrylamide gel electrophoresis in the presence of 0.1% SDS then were transferred onto Immobilon-P membranes (Millipore, St Quentin en Yvelines, France). The membranes were saturated with 5% freeze dried skimmed milk, Tween 20 0.1% in a 50 mM Tris-HCl, 150 mM NaCl buffer, pH 7.5 (TBS) for 2 hours at ambient temperature. The membranes were then incubated overnight at 4° C. with anti-MMP-14, anti-PAI-1 and anti-u-PAR antibodies then incubated for one hour at ambient temperature with a secondary antibody (anti-IgG) conjugated with peroxidase. The immune complexes were visualized with an ECL chemoluminescence detection kit.
On the technique in general: Immunoblotting shows a protein as a band on a membrane.

Where a SMILES comes first, the peptide text is derived from it.

As to `NC(=O)CC1NC(=O)C(CO)NC(=O)C(Cc2ccc(O)cc2)NC(=O)CNC(=O)C(CO)NC1=O` (stereo not shown) [cyclopeptide YSNSG, cyclopeptide YSNSG (SEQ ID NO: 3)] (cyclo(GYSNS); configuration not given here), the “secretion of PAI-1” value is on record as “large increase”.
